# Assay results from patent US20250237642A1 (priority 2022, published 2025).
# Columns and labels:
# HBV wild-type = HBV wild-type (Hepatitis B virus genotype D subtype ayw, UniProt P03146)
# T109 mutant = T109 mutant (Hepatitis B virus genotype D subtype ayw, UniProt P03146, T109I)
# HIV-RT M184V and M184I = conditions: cited from earlier work
# HIV-RT Q151M mutation [1] = molecular target: T1, HIV-RT Q151M mutation (Human immunodeficiency virus type 1 group M subtype B, UniProt P03366, Q750M); conditions: cited from earlier work
# HIV-RT Q151M mutation [2] = molecular target: T1, HIV-RT Q151M mutation; conditions: cited from earlier work; remark: listed apart in the source
# HBV core protein mutants [3] = molecular target: HBV core protein mutants (Hepatitis B virus genotype D subtype ayw, UniProt P03146, F23Y); conditions: cited from earlier work
# HBV core protein mutants [4] = molecular target: HBV core protein mutants (Hepatitis B virus genotype D subtype ayw, UniProt P03146, F110I); conditions: cited from earlier work
# HBV core protein mutants [5] = molecular target: HBV core protein mutants (Hepatitis B virus genotype D subtype ayw, UniProt P03146, L30F); conditions: cited from earlier work
# HBV core protein mutants [6] = molecular target: HBV core protein mutants (Hepatitis B virus genotype D subtype ayw, UniProt P03146, T33Q); conditions: cited from earlier work
# HBV core protein mutants [7] = molecular target: HBV core protein mutants (Hepatitis B virus genotype D subtype ayw, UniProt P03146, T128I); conditions: cited from earlier work
# HBV core protein mutants [8] = molecular target: HBV core protein mutants (Hepatitis B virus genotype D subtype ayw, UniProt P03146, L140I); conditions: cited from earlier work
# HBV core protein mutants [9] = molecular target: HBV core protein mutants (Hepatitis B virus genotype D subtype ayw, UniProt P03146, T109I); conditions: cited from earlier work
smiles,measurement,setting,value
C#CCNC(=O)C(=O)c1c(C)c(C(=O)Nc2ccc(F)c(F)c2)n(C)c1C [GLP-26],Effect on HBeAg production (sensitive / resistant),HBV wild-type,Sensitive
same,Reduction of cccDNA,T109 mutant,susceptible
"Nc1nc(=O)n([C@@H]2CS[C@H](CO)O2)cc1F [(-)-FTC, emtricitabine]",fold resistance,HIV-RT M184V and M184I,500-1000 fold
same,Enzymatic sensitivity,HIV-RT Q151M mutation [1],remains sensitive
same,fold reduction of EC50,HIV-RT Q151M mutation [2],2 fold
COC(=O)C1=C(C)NC(c2ncc(F)cc2F)=N[C@H]1c1ccc(F)cc1Cl [BAY41-4109],Reported resistance mutation,HBV core protein mutants [3],resistance mutations
same,Reported resistance mutation,HBV core protein mutants [4],reported
same,Reported resistance mutation,HBV core protein mutants [5],resistance mutations
same,Reported resistance mutation,HBV core protein mutants [6],resistance mutation
C[C@H](NS(=O)(=O)c1cc(C(=O)Nc2ccc(F)c(C#N)c2)n(C)c1)C(F)(F)F [JNJ-6379],Reported resistance mutation,HBV core protein mutants [7],reported
same,Reported resistance mutation,HBV core protein mutants [3],resistance mutations
same,Reported resistance mutation,HBV core protein mutants [4],reported
same,Reported resistance mutation,HBV core protein mutants [5],resistance mutations
same,Reported resistance mutation,HBV core protein mutants [8],reported
CCOC(=O)C1=C(CN2CCOCC2)NC(c2nccs2)=NC1c1ccc(F)cc1Br (stereo not drawn) [GLS4],Reported resistance mutation,HBV core protein mutants [9],resistant
